Assay results reported in PubChem BioAssay (NCI).
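Five concentrations, 48 hours, 96-well plates. TGI is the concentration that stops growth completely.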

Key:
Assay in all cases: inhibition of tumour cell growth, NCI panel, 48 h
M19-MEL melanoma = system: M19-MEL melanoma
DLD-1 colon = system: DLD-1 colon
SNB-19 CNS = system: SNB-19 CNS
HCT-116 colon = system: HCT-116 colon
XF 498 CNS = system: XF 498 CNS
OVCAR-8 ovarian = system: OVCAR-8 ovarian
UACC-257 melanoma = system: UACC-257 melanoma
RXF 393 renal = system: RXF 393 renal
OVCAR-5 ovarian = system: OVCAR-5 ovarian
MALME-3M melanoma = system: MALME-3M melanoma
IGROV1 ovarian = system: IGROV1 ovarian
K-562 leukemia = system: K-562 leukemia
A498 renal = system: A498 renal
HL-60(TB) leukemia = system: HL-60(TB) leukemia
EKVX NSCLC = system: EKVX NSCLC
SK-MEL-5 melanoma = system: SK-MEL-5 melanoma
SK-MEL-2 melanoma = system: SK-MEL-2 melanoma
HOP-62 NSCLC = system: HOP-62 NSCLC
ACHN renal = system: ACHN renal
SK-MEL-28 melanoma = system: SK-MEL-28 melanoma
SF-268 CNS = system: SF-268 CNS
SN12C renal = system: SN12C renal
HCT-15 colon = system: HCT-15 colon
HT29 colon = system: HT29 colon
OVCAR-3 ovarian = system: OVCAR-3 ovarian
SNB-75 CNS = system: SNB-75 CNS
HCC-2998 colon = system: HCC-2998 colon
KM12 colon = system: KM12 colon
KM20L2 colon = system: KM20L2 colon
NCI-H23 lung = system: NCI-H23 lung
DMS 273 small cell lung = system: DMS 273 small cell lung
SW-620 colon = system: SW-620 colon
COLO 205 colon = system: COLO 205 colon
OVCAR-4 ovarian = system: OVCAR-4 ovarian
SF-539 CNS = system: SF-539 CNS
NCI-H226 lung = system: NCI-H226 lung
HOP-92 NSCLC = system: HOP-92 NSCLC
SF-295 CNS = system: SF-295 CNS
NCI-H522 lung = system: NCI-H522 lung
LOX IMVI melanoma = system: LOX IMVI melanoma
SK-OV-3 ovarian = system: SK-OV-3 ovarian
NCI-H460 lung = system: NCI-H460 lung
RPMI-8226 leukemia = system: RPMI-8226 leukemia
TK-10 renal = system: TK-10 renal
UO-31 renal = system: UO-31 renal
786-0 renal = system: 786-0 renal
DMS 114 small cell lung = system: DMS 114 small cell lung
MOLT-4 leukemia = system: MOLT-4 leukemia
CCRF-CEM leukemia = system: CCRF-CEM leukemia
A549 NSCLC = system: A549 NSCLC
U251 CNS = system: U251 CNS
MDA-MB-435 = system: MDA-MB-435
MCF7 breast = system: MCF7 breast
NCI/ADR-RES ovarian = system: NCI/ADR-RES ovarian
HS 578T breast = system: HS 578T breast
MDA-MB-231 breast = system: MDA-MB-231 breast
UACC-62 melanoma = system: UACC-62 melanoma
CAKI-1 renal = system: CAKI-1 renal
DU-145 prostate = system: DU-145 prostate
SR leukemia = system: SR leukemia
BT-549 breast = system: BT-549 breast
MDA-N = system: MDA-N
T-47D breast = system: T-47D breast
PC-3 prostate = system: PC-3 prostate

## CC(=O)OC(C)C(=O)C1c2cccc(O)c2C(=O)c2c(O)cc(C)cc21 (stereo not given)
M19-MEL melanoma
  TGI: 1230 nM
DLD-1 colon
  TGI: 3.22 µM
SNB-19 CNS
  TGI: 1600 nM
HCT-116 colon
  TGI: 1090 nM
XF 498 CNS
  TGI: 465 nM
OVCAR-8 ovarian
  TGI: 2240 nM
UACC-257 melanoma
  TGI: 1400 nM
RXF 393 renal
  TGI: 813 nM
OVCAR-5 ovarian
  TGI: 2590 nM
MALME-3M melanoma
  TGI: 1820 nM
IGROV1 ovarian
  TGI: 1660 nM
K-562 leukemia
  TGI: 9.03 µM
A498 renal
  TGI: 3.68 µM
HL-60(TB) leukemia
  TGI: 847 nM
EKVX NSCLC
  TGI: 4.09 µM
SK-MEL-5 melanoma
  TGI: 1310 nM
SK-MEL-2 melanoma
  TGI: 1440 nM
HOP-62 NSCLC
  TGI: 1010 nM
ACHN renal
  TGI: 1850 nM
SK-MEL-28 melanoma
  TGI: 2300 nM
SF-268 CNS
  TGI: 1500 nM
SN12C renal
  TGI: 2240 nM
HCT-15 colon
  TGI: 1550 nM
HT29 colon
  TGI: 3.03 µM
OVCAR-3 ovarian
  TGI: 1430 nM
SNB-75 CNS
  TGI: 1830 nM
HCC-2998 colon
  TGI: 1690 nM
KM12 colon
  TGI: 1230 nM
KM20L2 colon
  TGI: 2720 nM
NCI-H23 lung
  TGI: 1150 nM
DMS 273 small cell lung
  TGI: 1850 nM
SW-620 colon
  TGI: 1710 nM
COLO 205 colon
  TGI: 3.01 µM
OVCAR-4 ovarian
  TGI: 1560 nM
SF-539 CNS
  TGI: 589 nM
NCI-H226 lung
  TGI: 1030 nM
HOP-92 NSCLC
  TGI: 1020 nM
SF-295 CNS
  TGI: 1190 nM
NCI-H522 lung
  TGI: 3.02 µM
LOX IMVI melanoma
  TGI: 1820 nM
SK-OV-3 ovarian
  TGI: 1810 nM
NCI-H460 lung
  TGI: 1350 nM
RPMI-8226 leukemia
  TGI: 5.98 µM
TK-10 renal
  TGI: 2880 nM
UO-31 renal
  TGI: 744 nM
786-0 renal
  TGI: 2280 nM
DMS 114 small cell lung
  TGI: 497 nM
MOLT-4 leukemia
  TGI: 8.17 µM
CCRF-CEM leukemia
  TGI: 6.05 µM
A549 NSCLC
  TGI: 1110 nM
U251 CNS
  TGI: 1110 nM

## O=c1c2cccnc2n2n1Cc1ccccc1C2
MDA-MB-435
  TGI: > 100 µM
MCF7 breast
  TGI: > 100 µM
HCT-116 colon
  TGI: > 100000 nM
NCI/ADR-RES ovarian
  TGI: > 100 µM
HS 578T breast
  TGI: > 100 µM
OVCAR-8 ovarian
  TGI: > 100000 nM
UACC-257 melanoma
  TGI: > 100000 nM
RXF 393 renal
  TGI: > 100000 nM
OVCAR-5 ovarian
  TGI: > 100000 nM
MDA-MB-231 breast
  TGI: > 100 µM
MALME-3M melanoma
  TGI: > 100000 nM
IGROV1 ovarian
  TGI: > 100000 nM
UACC-62 melanoma
  TGI: > 100 µM
K-562 leukemia
  TGI: > 100 µM
A498 renal
  TGI: > 100 µM
HL-60(TB) leukemia
  TGI: > 100000 nM
EKVX NSCLC
  TGI: > 100 µM
SK-MEL-5 melanoma
  TGI: > 100000 nM
HOP-62 NSCLC
  TGI: > 100000 nM
ACHN renal
  TGI: > 100000 nM
SK-MEL-28 melanoma
  TGI: > 100000 nM
SF-268 CNS
  TGI: > 100000 nM
CAKI-1 renal
  TGI: > 100 µM
DU-145 prostate
  TGI: > 100 µM
SN12C renal
  TGI: > 100000 nM
HCT-15 colon
  TGI: > 100000 nM
HT29 colon
  TGI: > 100 µM
OVCAR-3 ovarian
  TGI: > 100000 nM
SNB-75 CNS
  TGI: > 100000 nM
SR leukemia
  TGI: > 100 µM
HCC-2998 colon
  TGI: > 100000 nM
NCI-H23 lung
  TGI: > 100000 nM
SW-620 colon
  TGI: > 100000 nM
BT-549 breast
  TGI: > 100 µM
MDA-N
  TGI: > 100 µM
OVCAR-4 ovarian
  TGI: > 100000 nM
SF-539 CNS
  TGI: > 100000 nM
NCI-H226 lung
  TGI: > 100000 nM
HOP-92 NSCLC
  TGI: > 100000 nM
SF-295 CNS
  TGI: > 100000 nM
NCI-H522 lung
  TGI: > 100 µM
LOX IMVI melanoma
  TGI: > 100000 nM
SK-OV-3 ovarian
  TGI: > 100000 nM
NCI-H460 lung
  TGI: > 100000 nM
RPMI-8226 leukemia
  TGI: > 100 µM
TK-10 renal
  TGI: > 100000 nM
UO-31 renal
  TGI: > 100000 nM
786-0 renal
  TGI: > 100000 nM
T-47D breast
  TGI: > 100 µM
MOLT-4 leukemia
  TGI: > 100 µM
PC-3 prostate
  TGI: > 100 µM
CCRF-CEM leukemia
  TGI: > 100 µM
A549 NSCLC
  TGI: > 100000 nM
U251 CNS
  TGI: > 100000 nM
